Here are results for 18 compounds from patent US11596639B2, “Substituted indole Mcl-1 inhibitors” (Vanderbilt University, priority 2016, dated 2023).

A word on the Ki: it is the dissociation constant of the complex between target and ligand, obtained from inhibition or displacement.

SMILES strings stand for the structures. Like-named read-outs stand apart in the source and are kept apart here.

For test [1], the target named is Mcl-1 (Homo sapiens (Human), UniProt Q07820). Description: Fluorescence polarization anisotropy (FPA) competition assay, FITC-Bak or FITC-Bim BH3 peptide. The conditions noted are these: read-out: Ki for Inhibition of Mcl-1 by FPA assay. Type of test: binding. (Polarisation of emitted light reports the rotation of a fluorescent probe.)
Mcl-1, sequence (Q07820 172-327): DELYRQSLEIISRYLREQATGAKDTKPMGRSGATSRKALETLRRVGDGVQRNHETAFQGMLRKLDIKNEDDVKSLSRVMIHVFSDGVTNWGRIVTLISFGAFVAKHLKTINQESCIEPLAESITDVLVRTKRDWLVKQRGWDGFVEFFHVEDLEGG
Test [2] deals with H929 human cancer cell lines. In words: Cellular viability / proliferation (Cell TiterGlo, 72 h). Type of test: cell-based. An outline of the steps:
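H929 cells plated at 1,000/well in 10% FBS medium received a 2-fold serial compound dilution (top 50 μM, DMSO <1%) 24 h later. After 72 h, viability was read by CellTiter-Glo luminescence. IC50 came from a four-parameter fit.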
A general note: ATP-based viability assays read luminescence as a measure of living cells.

Where [3] appears, read: Homo sapiens, NCI-H929, 72 h, read-out: GI50 on cellular proliferation of H929 human cancer cell lines, H929 cells, 72 h, Cell TiterGlo, 10% FBS.
Where [4] appears, read: read-out: GI50 on cellular proliferation of H929 human cancer cell lines, H929 cells, 72 h, Cell TiterGlo, 10% FBS.

For the compound `Cc1cc(OCCCc2c3n(c4c(-c5c(C)nn(C)c5C)c(Cl)ccc24)[C@H](C)CN(c2cccc4c2cc(C(=O)O)n4CC2CCOCC2)C3=O)cc(C)c1Cl` [Example 198, (R)-4-(7-Chloro-10-(3-(4-chloro-3,5-dimethylphenoxy)propyl)-4-methyl-1-oxo-6-(1,3,5-trimethyl-1H-pyrazol-4-yl)-3,4-dihydropyrazino[1,2-a]indol-2(1H)-yl)-1-((tetrahydro-2H-pyran-4-yl)methyl)-1H-indole-2-carboxylic acid], in test [1], the Ki was less than 1 nM. In test [2] (setting [3]), the GI50 was 610 nM.

On to `Cc1cc(N2C[C@@H](C)n3c(c(CCCOc4cc(C)c(Cl)c(C)c4)c4ccc(Cl)c(-c5c(C)nn(C)c5C)c43)C2=O)c2c(c1)cc(C(=O)O)n2C` [Example 201, (R)-7-(7-Chloro-10-(3-(4-chloro-3,5-dimethylphenoxy)propyl)-4-methyl-1-oxo-6-(1,3,5-trimethyl-1H-pyrazol-4-yl)-3,4-dihydropyrazino[1,2-a]indol-2(1H)-yl)-1,5-dimethyl-1H-indole-2-carboxylic acid], for which the inhibitory constant (Ki) in test [1] is less than 1 nM. Moreover, in test [2] (setting [3]), the GI50 is less than 200 nM.

Turning to `Cc1cc(OCCCc2c3n(c4c(-c5c(C)nn(C)c5C)c(Cl)ccc24)[C@H](C)CN(c2cccc4c2CCC4=O)C3=O)cc(C)c1Cl` [Example 203, (R)-7-Chloro-10-(3-(4-chloro-3,5-dimethylphenoxy)propyl)-4-methyl-2-(1-oxo-2,3-dihydro-1H-inden-4-yl)-6-(1,3,5-trimethyl-1H-pyrazol-4-yl)-3,4-dihydropyrazino[1,2-a]indol-1(2H)-one], the Ki in test [1] was found to be 6 nM. Moreover, the GI50 in test [2] (setting [3]) was 3900 nM.

On to `Cc1cc(OCCCc2c3n(c4c(-c5c(C)nn(C)c5C)c(Cl)ccc24)[C@H](C)CN(c2cn(C)c4cc(C#N)ccc24)C3=O)cc(C)c1Cl` [Example 206, (R)-3-(7-Chloro-10-(3-(4-chloro-3,5-dimethylphenoxy)propyl)-4-methyl-1-oxo-6-(1,3,5-trimethyl-1H-pyrazol-4-yl)-3,4-dihydropyrazino[1,2-a]indol-2(1H)-yl)-1-methyl-1H-indole-6-carbonitrile], for which the Ki in test [1] is less than 1 nM. Also, the GI50 in test [2] (setting [3]) came to 3200 nM.

`Cc1cc(OCCCc2c3n(c4c(-c5c(C)nn(C)c5C)c(Cl)ccc24)[C@H](C)CN(c2cn(C)c4ccc(C#N)cc24)C3=O)cc(C)c1Cl` [Example 208, (R)-3-(7-Chloro-10-(3-(4-chloro-3,5-dimethylphenoxy)propyl)-4-methyl-1-oxo-6-(1,3,5-trimethyl-1H-pyrazol-4-yl)-3,4-dihydropyrazino[1,2-a]indol-2(1H)-yl)-1-methyl-1H-indole-5-carbonitrile]: in test [1], the Ki was less than 1 nM. Further, in test [2] (setting [3]), the GI50 is 1600 nM.

As to `Cc1cc(OCCCc2c3n(c4c(-c5c(C)nn(C)c5C)c(Cl)ccc24)[C@H](C)CN(c2cn(C)c4c(C#N)cccc24)C3=O)cc(C)c1Cl` [Example 209, (R)-3-(7-Chloro-10-(3-(4-chloro-3,5-dimethylphenoxy)propyl)-4-methyl-1-oxo-6-(1,3,5-trimethyl-1H-pyrazol-4-yl)-3,4-dihydropyrazino[1,2-a]indol-2(1H)-yl)-1-methyl-1H-indole-7-carbonitrile], in test [1], the Ki was 1.2 nM. Further, the GI50 in test [2] (setting [3]) was 3500 nM.

For the compound `Cc1cc(OCCCc2c3n(c4c(-c5c(C)ncnc5C)c(Cl)ccc24)[C@H](C)CN(c2cccc4c2cc(C(=O)O)n4C)C3=O)cc(C)c1Cl` [Example 210, 4-[(4R)-7-chloro-10-[3-(4-chloro-3,5-dimethyl-phenoxy)propyl]-6-(4,6-dimethylpyrimidin-5-yl)-4-methyl-1-oxo-3,4-dihydropyrazino[1,2-a]indol-2-yl]-1-methyl-indole-2-carboxylic acid], the Ki in test [1] turned out to be 1.3 nM. In test [2] (setting [3]), the GI50 turned out to be 1500 nM.

In the case of `Cc1cc(OCCCc2c3n(c4c(-c5c(C)nn(C)c5C)c(Cl)ccc24)[C@H](C)CN(c2cc(C(=O)O)cc4c2cc(C(F)(F)F)n4C)C3=O)cc(C)c1Cl` [Example 211, 4-[(4R)-7-chloro-10-[3-(4-chloro-3,5-dimethyl-phenoxy)propyl]-4-methyl-1-oxo-6-(1,3,5-trimethylpyrazol-4-yl)-3,4-dihydropyrazino[1,2-a]indol-2-yl]-1-methyl-2-(trifluoromethyl)indole-6-carboxylic acid], in test [1], the Ki was determined as 3.1 nM. Also, the GI50 in test [2] (setting [3]) is 11000 nM.

Consider `Cc1cc(OCCCc2c3n(c4c(-c5c(C)ncnc5C)c(Cl)ccc24)CCCN(c2cccc4cc(C(=O)O)ccc24)C3=O)cc(C)c1Cl` [Example 213, 5-[8-Chloro-11-[3-(4-chloro-3,5-dimethyl-phenoxy)propyl]-7-(4,6-dimethylpyrimidin-5-yl)-1-oxo-4,5-dihydro-3H-[1,4]diazepino[1,2-a]indol-2-yl]naphthalene-2-carboxylic acid], for which the Ki in test [1] is less than 1 nM. Also, in test [2] (setting [3]), the GI50 was less than 200 nM.

For the compound `Cc1cc(OCCCc2c3n(c4c(-c5c(C)nn(C)c5C)c(Cl)ccc24)[C@H](C)CN(c2cccc4c(C(=O)O)cn(C)c24)C3=O)cc(C)c1Cl` [Example 214, (R)-7-(7-chloro-10-(3-(4-chloro-3,5-dimethylphenoxy)propyl)-4-methyl-1-oxo-6-(1,3,5-trimethyl-1H-pyrazol-4-yl)-3,4-dihydropyrazino[1,2-a]indol-2(1H)-yl)-1-methyl-1H-indole-3-carboxylic acid], the Ki in test [1] is less than 1 nM. For the same compound, in test [2] (setting [4]), the GI50 turned out to be 380 nM.

For the compound `Cc1cc(OCCCc2c3n(c4c(-c5c(C)nn(C)c5C)c(Cl)ccc24)[C@H](C)CN(c2cccc4c(C(=O)O)cn(C)c24)C3=O)cc(C)c1Cl` [Example 215, (R)-7-(7-chloro-10-(3-(4-chloro-3,5-dimethylphenoxy)propyl)-4-methyl-1-oxo-6-(1,3,5-trimethyl-1H-pyrazol-4-yl)-3,4-dihydropyrazino[1,2-a]indol-2(1H)-yl)-1-methyl-1H-indole-3-carboxylic acid], the Ki in test [1] is less than 1 nM. In addition, in test [2] (setting [4]), the GI50 was found to be 430 nM.

Consider `Cc1cc(OCCCc2c3n(c4c(-c5c(C)ncnc5C)c(Cl)ccc24)[C@H](C)CN(c2cccc4cc(C(=O)O)ccc24)C3=O)cc(C)c1Cl` [Example 218, 5-[(4R)-7-chloro-10-[3-(4-chloro-3,5-dimethyl-phenoxy)propyl]-6-(4,6-dimethylpyrimidin-5-yl)-4-methyl-1-oxo-3,4-dihydropyrazino[1,2-a]indol-2-yl]naphthalene-2-carboxylic acid], for which the Ki in test [1] is less than 1 nM. For the same compound, the GI50 in test [2] (setting [3]) is less than 200 nM.

Regarding `Cc1cc(OCCCc2c3n(c4c(-c5c(C)ncnc5C)c(Cl)ccc24)CCCN(c2cccc4cc(C(=O)O)n(C)c24)C3=O)cc(C)c1Cl` [Example 219, 7-[8-Chloro-11-[3-(4-chloro-3,5-dimethyl-phenoxy)propyl]-7-(4,6-dimethylpyrimidin-5-yl)-1-oxo-4,5-dihydro-3H-[1,4]diazepino[1,2-a]indol-2-yl]-1-methyl-indole-2-carboxylic acid], the inhibition constant Ki in test [1] is 2.2 nM. The GI50 in test [2] (setting [3]) turned out to be 1200 nM.

Turning to `Cc1cc(OCCCc2c3n(c4c(-c5c(C)ncnc5C)c(Cl)ccc24)CCCN(c2ccnc4ccc(C(=O)O)cc24)C3=O)cc(C)c1Cl` [Example 220, 4-[8-Chloro-11-[3-(4-chloro-3,5-dimethyl-phenoxy)propyl]-7-(4,6-dimethylpyrimidin-5-yl)-1-oxo-4,5-dihydro-3H-[1,4]diazepino[1,2-a]indol-2-yl]quinoline-6-carboxylic acid], the Ki in test [1] is less than 1 nM. Moreover, the GI50 in test [2] (setting [3]) was 2000 nM.

Regarding `Cc1cc(OCCCc2c3n(c4c(-c5c(C)nn(C)c5C)c(Cl)ccc24)[C@H](C)CN(c2cn(C)c4ccc(C(N)=O)cc24)C3=O)cc(C)c1Cl` [Example 221, 3-[(4R)-7-chloro-10-[3-(4-chloro-3,5-dimethyl-phenoxy)propyl]-4-methyl-1-oxo-6-(1,3,5-trimethylpyrazol-4-yl)-3,4-dihydropyrazino[1,2-a]indol-2-yl]-1-methyl-indole-5-carboxamide], in test [1], the Ki was 2.5 nM. In addition, in test [2] (setting [3]), the GI50 came to 450 nM.

As to `Cc1cc(OCCCc2c3n(c4c(-c5c(C)nn(C)c5C)c(Cl)ccc24)[C@H](C)CN(c2cn(C)c4cc(S(C)(=O)=O)ccc24)C3=O)cc(C)c1Cl` [Example 222, (R)-7-chloro-10-(3-(4-chloro-3,5-dimethylphenoxy)propyl)-4-methyl-2-(1-methyl-6-(methylsulfonyl)-1H-indol-3-yl)-6-(1,3,5-trimethyl-1H-pyrazol-4-yl)-3,4-dihydropyrazino[1,2-a]indol-1(2H)-one], the inhibition constant Ki in test [1] was 6.9 nM. Further, the GI50 in test [2] (setting [3]) is 3000 nM.

On to `Cc1cc(OCCCc2c3n(c4c(-c5c(C)nn(C)c5C)c(Cl)ccc24)[C@H](C)CN(c2cn(C)c4ccc([N+](=O)[O-])cc24)C3=O)cc(C)c1Cl` [Example 223, (4R)-7-chloro-10-[3-(4-chloro-3,5-dimethyl-phenoxy)propyl]-4-methyl-2-(1-methyl-5-nitro-indol-3-yl)-6-(1,3,5-trimethylpyrazol-4-yl)-3,4-dihydropyrazino[1,2-a]indol-1-one], for which the Ki in test [1] stood at 1.1 nM. In test [2] (setting [3]), the GI50 stood at 5000 nM.

Regarding `Cc1cc(OCCCc2c3n(c4c(-c5c(C)ncnc5C)c(Cl)ccc24)[C@H](C)CN(c2ccc(C(=O)O)c4cccnc24)C3=O)cc(C)c1Cl` [Example 224, 8-[(4R)-7-chloro-10-[3-(4-chloro-3,5-dimethyl-phenoxy)propyl]-6-(4,6-dimethylpyrimidin-5-yl)-4-methyl-1-oxo-3,4-dihydropyrazino[1,2-a]indol-2-yl]quinoline-5-carboxylic acid], the Ki in test [1] was less than 1 nM. In test [2] (setting [3]), the GI50 came to 2500 nM.
